Tests used:
[1] = system: BT-549; conditions: 72 h
Outline: (§1)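 Rows with a drug sensitivity score of zero were dropped, and EC50 was taken from the fitted percent-inhibition dose-response curve, censored at the highest concentration. Data were normalised on each plate to vehicle and a positive kill control and checked by Z'-factor. The assay seeded breast cancer cell lines in 20 µl onto 384-well plates pre-loaded with compound in 5 µl medium for 72 h, then added 2.5 µl CellTiter-Blue for 2 h at 37 °C and read fluorescence at 560/590 nm.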

[2] = system: MDA-MB-436; conditions: 72 h
Outline: as §1

[3] = system: MFM-223; conditions: 72 h
Outline: as §1

[4] = system: BT-474; assay: normalised viability (% of control), CellTiter-Blue; higher = more viable cells (about 100 = DMSO control); conditions: incubation time: 72 h
Outline: (§2)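 The reported figure is normalised viability at a single listed concentration of the series. Breast cancer cell lines (20 µl suspension) went onto 384-well plates holding compound in 5 µl medium for 72 h. CellTiter-Blue (2.5 µl, 2 h, 37 °C) was read by fluorescence at 560/590 nm, and each plate was scaled to vehicle at 100 and a positive kill control at 0.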

[5] = system: BT-549; assay: as above; conditions: incubation time: 72 h
Outline: as §2

[6] = system: CAL-120; assay: as above; conditions: incubation time: 72 h
Outline: as §2

[7] = system: CAL-148; assay: as above; conditions: incubation time: 72 h
Outline: as §2

[8] = system: CAL-51; assay: as above; conditions: incubation time: 72 h
Outline: as §2

[9] = system: CAL-85-1; assay: as above; conditions: incubation time: 72 h
Outline: as §2

[10] = system: DU-4475; assay: as above; conditions: incubation time: 72 h
Outline: as §2

[11] = system: HCC1143; assay: as above; conditions: incubation time: 72 h
Outline: as §2

[12] = system: HCC1599; assay: as above; conditions: incubation time: 72 h
Outline: as §2

[13] = system: HCC1937; assay: as above; conditions: incubation time: 72 h
Outline: as §2

[14] = system: HDQ-P1; assay: as above; conditions: incubation time: 72 h
Outline: as §2

[15] = system: Hs578T; assay: as above; conditions: incubation time: 72 h
Outline: as §2

[16] = system: MDA-MB-231; assay: as above; conditions: incubation time: 72 h
Outline: as §2

[17] = system: MDA-MB-436; assay: as above; conditions: incubation time: 72 h
Outline: as §2

[18] = system: MDA-MB-453; assay: as above; conditions: incubation time: 72 h
Outline: as §2

[19] = system: MDA-MB-468; assay: as above; conditions: incubation time: 72 h
Outline: as §2

[20] = system: MFM-223; assay: as above; conditions: incubation time: 72 h
Outline: as §2

[21] = system: SK-BR-3; assay: as above; conditions: incubation time: 72 h
Outline: as §2

[22] = system: CAL-120; conditions: 72 h
Outline: as §1

[23] = system: HCC1143; conditions: 72 h
Outline: as §1

[24] = system: HCC1599; conditions: 72 h
Outline: as §1

Cc1ccc(Nc2nccc(N(C)c3ccc4c(C)n(C)nc4c3)n2)cc1S(N)(=O)=O [Pazopanib]
Conditions | EC50, CellTiter-Blue viability [nM]
[1] | 8260
[2] | 107
[3] | 34.6

normalised viability [%]
Conditions | 3 nM | 10 nM | 30 nM | 100 nM | 1000 nM | 10000 nM
[4] | – | 105 | – | – | 109 | 104
[5] | – | 86.8 | – | – | 86.6 | 45.6
[6] | – | 85.5 | – | – | 91.2 | 97.5
[7] | 78.5 | – | 88.9 | 82.1 | – | –
[8] | 108 | – | 103 | 99.9 | – | –
[9] | 92.2 | – | 77.8 | 95.3 | – | –
[10] | 97 | – | 100 | 104 | – | –
[11] | – | 76.5 | – | – | 101 | 60.7
[12] | – | 96.5 | – | – | 115 | 104
[13] | – | 86.7 | – | – | 92 | 94.3
[14] | 107 | – | 103 | 99.2 | – | –
[15] | – | 117 | – | – | 98.1 | 90.8
[16] | – | 86.3 | – | – | 88.7 | 61.4
[17] | – | 97.5 | – | – | 77.4 | 77.4
[18] | 97.7 | – | 108 | 102 | – | –
[19] | – | 106 | – | – | 108 | 99.4
[20] | – | 86.8 | – | – | 51.8 | 58.6
[21] | – | 98.4 | – | – | 99 | 88.1

CC[C@@]1(O)C(=O)OCc2c1cc1n(c2=O)Cc2cc3c(CN(C)C)c(O)ccc3nc2-1 [Topotecan]
Conditions | EC50, CellTiter-Blue viability [nM]
[1] | 77.1
[2] | 110
[22] | 79.9
[23] | 652
[24] | 102

normalised viability [%]
Conditions | 0.3 nM | 1 nM | 3 nM | 10 nM | 100 nM | 1000 nM
[4] | – | 127 | – | – | 112 | 77.9
[5] | – | 85.9 | – | – | 75.3 | 62.9
[6] | – | 86.2 | – | – | 54.8 | 32.1
[7] | 84.5 | – | 111 | 96.5 | – | –
[8] | 99 | – | 96.5 | 96.8 | – | –
[9] | 93.2 | – | 85.2 | 96.9 | – | –
[10] | 88.4 | – | 88.4 | 78.5 | – | –
[11] | – | 79.9 | – | – | 79.1 | 41.9
[12] | – | 91.5 | – | – | 82.3 | 64
[13] | – | 96.9 | – | – | 40.6 | 26.2
[14] | 112 | – | 105 | 105 | – | –
[15] | – | 132 | – | – | 102 | 69.4
[16] | – | 97 | – | – | 80.5 | 59.8
[17] | – | 110 | – | – | 75.5 | 44.6
[18] | 103 | – | 107 | 102 | – | –
[19] | – | 108 | – | – | 45.6 | 12.8
[20] | – | 105 | – | – | 88.2 | 53.5
[21] | – | 105 | – | – | 48.7 | 24.8

From the supplement of paper PMC4862054
